From publication PMC6390472, “‘Second-generation’ 1,2,3-triazole-based inhibitors of Porphyromonas gingivalis adherence to oral streptococci and biofilm formation” (MedChemComm, 2019)

Test system: P. gingivalis adherence to S. gordonii
Experiment: Biofilm model of P. gingivalis adherence to S. gordonii (confocal, green/red fluorescence ratio)
Format: cell-based, P. gingivalis ATCC33277 / S. gordonii DL-1
Conditions: inhibition of P. gingivalis adherence to S. gordonii; concentration that reduced ratio of green to red fluorescence by 50%; tested 0–60 μM
Description: P. gingivalis ATCC33277 was grown in reduced trypticase soy broth (Difco) supplemented with 0.5 percent yeast extract, 1 μg mL^–1 menadione, and 5 μg mL^–1 hemin. Twenty five milliliters of medium were reduced for 24 h under anaerobic conditions by equilibrating in an atmosphere consisting of 10% CO2, 10% H2, and 80% N2. Following equilibration, P. gingivalis was inoculated in the medium and grown for 48 h at 37 °C under anaerobic conditions. S. gordonii DL-1 (1) was cultured aerobically without shaking in brain heart infusion (BHI) broth supplemented with 1 percent yeast extract for 16 hours at 37 °C. For some compounds that inhibited P. gingivalis adherence to S. gordonii, we determined their effect on planktonic growth of P. gingivalis and S. gordonii. The appropriate growth medium (10 ml) was supplemented with 10 μl of a 40 mM compound stock solution in DMSO. After inoculation, broth cultures were incubated as described above and compared to cultures grown in medium that was supplemented only with 0.1% DMSO. The cell density of each culture was determined by measuring the optical density at 600 nm (O.D.600nm) and the percent growth inhibition/stimulation was calculated using the following equation: [(O.D.600nm of the control/O.D.600nm of the culture grown in the presence of compound) – 1] × 100.
Two species biofilms were formed essentially as previously described.[39] To prepare bacterial cells for biofilm culture, 10 ml of an overnight S. gordonii culture was centrifuged at 5600 rpm for 5 min and the cell pellet was suspended in 1 mL sterile PBS. Subsequently, 20 μL of 5 mg ml^–1 hexidium iodide (Molecular Probes) was added to the cell suspension and incubated for 15 min with gentle shaking at room temperature in the dark. The labeled cells were centrifuged as described above, washed with phosphate-buffered saline (10 mM Na2HPO4, […], […], and 2.7 mM KCl, pH 7.2; [PBS]) and the cell pellet was suspended in PBS at a final O.D.600nm of 0.8. Similarly, 10 mL of a 48 h culture of P. gingivalis was centrifuged at 5600 rpm for 15 min, the cell pellet was suspended in 1 mL PBS and 20 μL of 5(6)-carboxyfluorescein N-hydroxysuccinimide ester (4 mg ml^–1, Molecular Probes, Inc.) was added. After incubation for 30 min with gentle shaking at room temperature in the dark, the suspension was centrifuged and washed as described above and suspended in PBS at a final O.D.600nm of 0.4. For biofilm cultures, 1 mL of labeled S. gordonii cells was added to each well of a 12-well microtiter plate (Greiner Bio-one) containing a circular coverslip (Fisher brand) and incubated in an anaerobic chamber with rotary shaking for 24 h at 37 °C. Unbound cells were removed by aspiration and 1 ml of labeled P. gingivalis cells containing the desired concentration of test compound was added and incubated under anaerobic conditions for 22 h at 37 °C. Test compounds were dissolved in dimethyl sulfoxide (DMSO) to generate 1000× stock solutions and were routinely tested over a final concentration range of 0–60 μM. 1 μL of the appropriate stock solution was added to each 1 mL aliquot of labeled P. gingivalis cells and incubated for 30 min at room temperature prior to adding the suspension to the microtiter plate wells. For control biofilms, 1 μL of DMSO was added to 1 mL of labeled P. gingivalis and incubated as described above.
To visualize P. gingivalis/S. gordonii biofilms, unbound P. gingivalis cells were removed by aspiration and coverslips were washed once with PBS. Biofilms were fixed by incubating the coverslips with 1 mL of 4% paraformaldehyde for 5 min followed by two washes with PBS. The coverslips were then removed, placed face down on a glass microscope slide containing a drop of antifade reagent (Life Technology) and sealed with nail polish. […]

SMILES	IC50
[O-][S+](Cc1nc(-c2ccccc2)c(-c2ccccc2)o1)c1ccc(-n2cc(-c3cccnc3)nn2)cc1 (centres unmarked) [Compound 28, 4,5-Diphenyl-2-(((4-(4-(pyridin-3-yl)-1H-1,2,3-triazol-1-yl)phenyl)sulfinyl)methyl) oxazole]	> 60 µM
[O-][S+](Cc1nc(-c2ccccc2)c(-c2ccccc2)o1)c1ccc(-n2cc(-c3ccc(F)cc3)nn2)cc1 (centres unmarked) [Compound 29]	> 60 µM
[O-][S+](Cc1nc(-c2ccccc2)c(-c2ccccc2)o1)c1ccc(-n2cc(-c3cccc(F)c3)nn2)cc1 (centres unmarked) [Compound 30]	47.3 µM
COc1ccccc1-c1cn(-c2ccc([S+]([O-])Cc3nc(-c4ccccc4)c(-c4ccccc4)o3)cc2)nn1 (centres unmarked) [Compound 31]	> 60 µM
[O-][S+](Cc1nc(-c2ccccc2)c(-c2ccccc2)o1)c1ccc(-n2cc(-c3ccccc3C(F)(F)F)nn2)cc1 (centres unmarked) [Compound 32]	> 60 µM
COc1ccc2cc(-c3cn(-c4ccc([S+]([O-])Cc5nc(-c6ccccc6)c(-c6ccccc6)o5)cc4)nn3)ccc2c1 (centres unmarked) [Compound 33]	> 60 µM
CCCCCc1ccc(-c2cn(-c3ccc([S+]([O-])Cc4nc(-c5ccccc5)c(-c5ccccc5)o4)cc3)nn2)cc1 (centres unmarked) [Compound 34]	> 60 µM
[O-][S+](Cc1nc(-c2ccccc2)c(-c2ccccc2)o1)c1ccc(-n2cc(-c3ccc(Oc4ccccc4)cc3)nn2)cc1 (centres unmarked) [Compound 35]	> 60 µM
[O-][S+](Cc1nc(-c2ccccc2)c(-c2ccccc2)o1)c1ccc(-n2cc(-c3cc(C(F)(F)F)cc(C(F)(F)F)c3)nn2)cc1 (centres unmarked) [Compound 36]	> 60 µM
O=S(=O)(Cc1nc(-c2ccccc2)c(-c2ccccc2)o1)c1ccc(-n2cc(-c3cccnc3)nn2)cc1 [Compound 37]	> 60 µM
O=S(=O)(Cc1nc(-c2ccccc2)c(-c2ccccc2)o1)c1ccc(-n2cc(-c3ccc(F)cc3)nn2)cc1 [Compound 38]	15.7 µM
O=S(=O)(Cc1nc(-c2ccccc2)c(-c2ccccc2)o1)c1ccc(-n2cc(-c3cccc(F)c3)nn2)cc1 [Compound 39]	33.6 µM
COc1ccccc1-c1cn(-c2ccc(S(=O)(=O)Cc3nc(-c4ccccc4)c(-c4ccccc4)o3)cc2)nn1 [Compound 40]	13.1 µM
O=S(=O)(Cc1nc(-c2ccccc2)c(-c2ccccc2)o1)c1ccc(-n2cc(-c3ccccc3C(F)(F)F)nn2)cc1 [Compound 41]	> 60 µM
COc1ccc2cc(-c3cn(-c4ccc(S(=O)(=O)Cc5nc(-c6ccccc6)c(-c6ccccc6)o5)cc4)nn3)ccc2c1 [Compound 42]	> 60 µM
CCCCCc1ccc(-c2cn(-c3ccc(S(=O)(=O)Cc4nc(-c5ccccc5)c(-c5ccccc5)o4)cc3)nn2)cc1 [Compound 43]	36.6 µM
O=S(=O)(Cc1nc(-c2ccccc2)c(-c2ccccc2)o1)c1ccc(-n2cc(-c3ccc(Oc4ccccc4)cc3)nn2)cc1 [Compound 44]	16.5 µM
O=S(=O)(Cc1nc(-c2ccccc2)c(-c2ccccc2)o1)c1ccc(-n2cc(-c3cc(C(F)(F)F)cc(C(F)(F)F)c3)nn2)cc1 [Compound 45]	38.5 µM
[O-][S+](Cc1nc(-c2ccc(F)cc2)c(-c2ccc(F)cc2)o1)c1ccc(-n2cc(-c3cccc(F)c3)nn2)cc1 (centres unmarked) [Compound 46]	5.3 µM
[O-][S+](Cc1nc(-c2ccc(F)cc2)c(-c2ccc(F)cc2)o1)c1ccc(-n2cc(-c3ccc(F)cc3)nn2)cc1 (centres unmarked) [Compound 47]	35.9 µM
COc1ccccc1-c1cn(-c2ccc([S+]([O-])Cc3nc(-c4ccc(F)cc4)c(-c4ccc(F)cc4)o3)cc2)nn1 (centres unmarked) [Compound 48]	7.2 µM
[O-][S+](Cc1nc(-c2ccc(Cl)cc2)c(-c2ccc(Cl)cc2)o1)c1ccc(-n2cc(-c3cccc(F)c3)nn2)cc1 (centres unmarked) [Compound 49]	15.1 µM

SMILES	IC50
[O-][S+](Cc1nc(-c2ccc(Cl)cc2)c(-c2ccc(Cl)cc2)o1)c1ccc(-n2cc(-c3ccc(F)cc3)nn2)cc1 (centres unmarked) [Compound 50]	39.8 µM
COc1ccccc1-c1cn(-c2ccc([S+]([O-])Cc3nc(-c4ccc(Cl)cc4)c(-c4ccc(Cl)cc4)o3)cc2)nn1 (centres unmarked) [Compound 51]	10.2 µM
O=S(=O)(Cc1nc(-c2ccc(F)cc2)c(-c2ccc(F)cc2)o1)c1ccc(-n2cc(-c3cccc(F)c3)nn2)cc1 [Compound 52]	40 µM
O=S(=O)(Cc1nc(-c2ccc(F)cc2)c(-c2ccc(F)cc2)o1)c1ccc(-n2cc(-c3ccc(F)cc3)nn2)cc1 [Compound 53]	40 µM
O=S(=O)(Cc1nc(-c2ccc(Cl)cc2)c(-c2ccc(Cl)cc2)o1)c1ccc(-n2cc(-c3cccc(F)c3)nn2)cc1 [Compound 55]	18.2 µM
CCN(CC)c1nc(-c2cn(-c3cccc(-c4nc(-c5ccccc5)c(-c5ccccc5)o4)c3)nn2)nc(N(CC)CC)n1 [Compound 90]	20.7 µM
CCN(CC)c1nc(-c2cn(-c3ccc(-c4nc(-c5ccccc5)c(-c5ccccc5)o4)cc3)nn2)nc(N(CC)CC)n1 [Compound 91]	> 60 µM
CCN(CC)c1nc(-c2cn(-c3cccc(-c4nc(-c5ccc(F)cc5)c(-c5ccc(F)cc5)o4)c3)nn2)nc(N(CC)CC)n1 [Compound 92]	> 60 µM
CCN(CC)c1nc(-c2cn(-c3cccc(-c4nc(-c5ccc(Cl)cc5)c(-c5ccc(Cl)cc5)o4)c3)nn2)nc(N(CC)CC)n1 [Compound 94]	16 µM
CCN(CC)c1nc(-c2cn(-c3cccc(-c4nc(-c5ccc(OC)cc5)c(-c5ccc(OC)cc5)o4)c3)nn2)nc(N(CC)CC)n1 [Compound 96]	> 60 µM
CCN(CC)c1nc(-c2cn(-c3ccc(-c4nc(-c5ccc(OC)cc5)c(-c5ccc(OC)cc5)o4)cc3)nn2)nc(N(CC)CC)n1 [Compound 97]	36.6 µM
CCN(CC)c1nc(-c2cn(-c3cccc(-c4nc(-c5ccco5)c(-c5ccco5)o4)c3)nn2)nc(N(CC)CC)n1 [Compound 98]	> 60 µM
CCN(CC)c1nc(-c2cn(-c3ccc(-c4nc(-c5ccco5)c(-c5ccco5)o4)cc3)nn2)nc(N(CC)CC)n1 [Compound 99]	> 60 µM
Fc1ccccc1Nc1nc(Nc2ccccc2F)nc(-c2cn(-c3cccc(-c4nc(-c5ccccc5)c(-c5ccccc5)o4)c3)nn2)n1 [Compound 100]	9.6 µM
Fc1ccccc1Nc1nc(Nc2ccccc2F)nc(-c2cn(-c3ccc(-c4nc(-c5ccccc5)c(-c5ccccc5)o4)cc3)nn2)n1 [Compound 101]	> 60 µM
Fc1ccccc1Nc1nc(Nc2ccccc2F)nc(-c2cn(-c3cccc(-c4nc(-c5ccc(Cl)cc5)c(-c5ccc(Cl)cc5)o4)c3)nn2)n1 [Compound 104]	33.8 µM
Fc1ccccc1Nc1nc(Nc2ccccc2F)nc(-c2cn(-c3ccc(-c4nc(-c5ccc(Cl)cc5)c(-c5ccc(Cl)cc5)o4)cc3)nn2)n1 [Compound 105]	> 60 µM
COc1ccc(-c2nc(-c3cccc(-n4cc(-c5nc(Nc6ccccc6F)nc(Nc6ccccc6F)n5)nn4)c3)oc2-c2ccc(OC)cc2)cc1 [Compound 106]	> 60 µM
COc1ccc(-c2nc(-c3ccc(-n4cc(-c5nc(Nc6ccccc6F)nc(Nc6ccccc6F)n5)nn4)cc3)oc2-c2ccc(OC)cc2)cc1 [Compound 107]	40 µM
Fc1ccccc1Nc1nc(Nc2ccccc2F)nc(-c2cn(-c3cccc(-c4nc(-c5ccco5)c(-c5ccco5)o4)c3)nn2)n1 [Compound 108]	> 60 µM
Fc1ccccc1Nc1nc(Nc2ccccc2F)nc(-c2cn(-c3ccc(-c4nc(-c5ccco5)c(-c5ccco5)o4)cc3)nn2)n1 [Compound 109]	> 60 µM
Fc1ccc(Nc2nc(Nc3ccc(F)cc3)nc(-c3cn(-c4ccccc4-c4nc(-c5ccccc5)c(-c5ccccc5)o4)nn3)n2)cc1 [Compound 110]	> 60 µM
